Key:
[1] = Free zinc concentration by fluorescent dye (Newport green DCF, FluoZin-3); assay type: physicochemical
Experimental: Further, in conjunction with clioquinol (20 μM) or the drug #28 (20 μM), a zinc fluorescent dye, i.e., Newport green DCF (0.5 μM, Kd(Zn)=1 uM) or FluoZin-3 (0.5 μM, Kd(Zn)=15 nM) was used for measurement of free zinc concentration.

neuronal cells [2] = assay: H2O2-mediated intracellular zinc increase, FluoZin-3 staining; assay type: cell-based; conditions: FluoZin-3, confocal microscopy
neuronal cells [3] = assay: Ionomycin (calcium ionophore) neurotoxicity; assay type: cell-based; conditions: 10 to 60 μM tested
Experimental: (§1) In order to determine whether the above result is obtained by the chelation of Ca^2+ ions other than the drug #28, protective effects of the drug #28 (10 to 60 μM) after treatment using ionomycin, which is a calcium ion permeable carrier (‘calcium ionophore’) directly increasing the intracellular calcium concentration, were under observation. Further, using a Fura-2 dye that is combined with calcium to represent fluorescence, it was monitored whether the drug #28 is combined with calcium on a test tube and represents chelating effects.

[4] = target: T1, recombinant AMPK (α2/β1/γ1) (Homo sapiens, UniProt P54646); assay: AMPK enzymatic activity assay (CycLex kit); assay type: biochemical
T1 construct: purchased CycLex, Japan
Experimental: More particularly, AMPK enzymatic activity was measured by an AMPK activity assay kit (CycLex, Japan) and recombinant AMPK (α2/β1/γ1 CycLex, Japan).

mouse cortical cultures [5] = assay: TPEN-induced neurotoxicity (LDH secretion); assay type: cell-based
From the text: (§2) Generally, application of TPEN as a zinc chelator easily flowing into the cells causes a cell death in the form of typical apoptosis (EDTA is not introduced into the cells). When adding zinc to the above treatment, intracellular free zinc ions are retained thus to reduce neuronal death and further reduce caspase-3 protease activity in the apoptosis process. Under expectation such that: the drug #28 and clioquinol may not only serve as a chelator but also play a role of an ion permeable carrier; these drugs flow into cells as combined with zinc; thereafter, the zinc is removed from the drug because a concentration of free zinc in the cytoplasm is too low; therefore, the concentration of free zinc in the cytoplasm is increased thus to reduce neurotoxicity due to TPEN, caspase-3 activity and neurotoxicity (LDH secretion) were under observation after treatment using zinc, the drug #28 and clioquinol.

mouse cortical cultures [6] = assay: TPEN-induced caspase-3 activity; assay type: cell-based
From the text: as §2

[7] = tested on: male Sprague-Dawley (SD) rat; assay: Permanent middle cerebral artery occlusion (MCAO) stroke model; assay type: in vivo
Experimental: More particularly, a permanent middle cerebral artery (MCA) occlusion model was prepared using a male Sprague-Dawley (SD) rat aged 8 to 9 weeks. At time points of 30 minutes before MCAO and 10 minutes after the same, cerebral blood flow (CBF) was measured by a laser-doppler flowmeter and the measured results are shown in Table 3 below. Then, 15 minutes after middle cerebral artery occlusion (MCAO), the compound #28, which is finally selected as an AMPK inhibitor (75 ng/3 μl), or a vehicle (10% DMSO) was provided to an area of 0.8 mm on a back and 1.2 mm on a lateral of bregma at a depth of 3.8 mm through intra-cerebroventricular injection. Thereafter, a degree of lack of movement (‘motor deficit’) was evaluated in the rat, in particular, standards for evaluation are classified as follows (Longa et al., 1989): no deficiency (normal); failure of extending the front foots when vertically stopping (mild); rotation on the opposite side (moderate); and rotation loss (loss of circling) or loss of reflex motion (serious deficit). After induction of ischemia in the rat model, the brain was obtained at the time of lapse of 24 hours, followed by determining a level of cerebral infraction by staining the brain with 2% 2,3,5-triphenyl tetrazolium chloride (TTC).

[8] = tested on: cultured cerebral cortex neurons of a mouse; assay: Intracellular free zinc after zinc exposure, FluoZin-3 (confocal microscope, fluorometer); assay type: cell-based
Experimental: In order to monitor whether an actual free zinc concentration in neuronal cells is increased or not, the cultured cerebral cortex neurons of a mouse were pre-treated with a FluoZin-3 staining material, exposed to high concentration zinc, and then, treated with 4C01 (20 μM), 4C07 (20 μM) and the drug #28 (20, 50 μM). Thereafter, images of these treated neurons were observed using a confocal laser fluorescence microscope, and a fluorescent size was quantitatively measured using a fluorescence photometer (fluorometer).

[9] = Free zinc concentration by pZn meter (test tube); assay type: physicochemical; conditions: 2.5 to 20 μM drug, ZnAF 2.5 μM
Experimental: In order to measure free zinc concentration levels, the drug #28 of the present invention was used for treatment in different concentrations (2.5 to 20 μM) along with ZnAF (2.5 μM) as a zinc fluorescent material on a test tube. On the other hand, a control group uses clioquinol (1 to 5 μM) well known as a very stronger zinc chelator. A free zinc concentration was measured by a pZn meter (NeuroBioTex Inc.).

[10] = Calcium chelation with Fura-2 dye (test tube); assay type: physicochemical
Experimental: as §1

[11] = tested on: male Sprague-Dawley (SD) rats; assay: Acute toxicity test; assay type: in vivo; parameters: RBC: unit not given here; conditions: 75 μg/kg intra-cerebroventricular
From the text: This procedure was repeated 4 times.
Further, the rat was sacrificed, and specific organs such as the liver, spleen and kidney were extracted, followed by measurement of weights thereof (FIG. 7).

T1 sequence (P54646 whole entry): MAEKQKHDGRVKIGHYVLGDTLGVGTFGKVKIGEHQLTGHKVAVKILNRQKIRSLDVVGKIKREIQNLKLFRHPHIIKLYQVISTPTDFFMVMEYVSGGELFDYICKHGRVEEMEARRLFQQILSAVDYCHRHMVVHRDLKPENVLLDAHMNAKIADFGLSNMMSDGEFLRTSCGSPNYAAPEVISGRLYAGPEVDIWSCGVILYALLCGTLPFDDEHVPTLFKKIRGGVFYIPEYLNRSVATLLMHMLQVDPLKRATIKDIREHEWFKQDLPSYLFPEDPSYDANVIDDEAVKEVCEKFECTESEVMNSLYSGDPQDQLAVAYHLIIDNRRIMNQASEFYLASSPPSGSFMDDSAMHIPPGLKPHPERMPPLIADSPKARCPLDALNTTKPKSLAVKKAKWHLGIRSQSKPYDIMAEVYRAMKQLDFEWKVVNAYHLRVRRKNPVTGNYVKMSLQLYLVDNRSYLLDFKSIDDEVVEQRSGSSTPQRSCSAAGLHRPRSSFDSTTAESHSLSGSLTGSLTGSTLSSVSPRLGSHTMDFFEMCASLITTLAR
T1 sequence (Q9Y478 whole entry partner): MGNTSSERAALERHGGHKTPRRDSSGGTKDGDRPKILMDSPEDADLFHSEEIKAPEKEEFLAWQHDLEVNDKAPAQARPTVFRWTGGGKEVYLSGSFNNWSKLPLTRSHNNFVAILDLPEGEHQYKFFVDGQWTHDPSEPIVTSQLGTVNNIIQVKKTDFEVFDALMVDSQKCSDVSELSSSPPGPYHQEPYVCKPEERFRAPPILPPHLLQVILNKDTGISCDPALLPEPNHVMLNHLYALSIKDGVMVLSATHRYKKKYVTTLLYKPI
T1 sequence (P54619 whole entry partner): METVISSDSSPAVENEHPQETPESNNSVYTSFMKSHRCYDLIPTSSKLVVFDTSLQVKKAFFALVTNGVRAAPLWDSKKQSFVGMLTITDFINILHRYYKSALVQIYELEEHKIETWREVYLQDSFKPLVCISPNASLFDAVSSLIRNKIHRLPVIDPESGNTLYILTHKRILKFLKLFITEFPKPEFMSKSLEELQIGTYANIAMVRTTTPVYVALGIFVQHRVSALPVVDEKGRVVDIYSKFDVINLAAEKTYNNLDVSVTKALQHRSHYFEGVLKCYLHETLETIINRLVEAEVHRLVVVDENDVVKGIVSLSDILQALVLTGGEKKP

**Q.** For O=C1N=C(Nc2cccc(O)c2)S/C1=C\c1c[nH]c2ccccc12 [compound 28, (Z)-5-((1H-indol-3-yl)methylene)-2-((3-hydroxyphenyl)amino)thiazol-4(5H)-one], which “zinc affinity compared to clioquinol” value [1] is on record?
**A.** Its value is “considerably low compared to clioquinol”.

**Q.** What about the “free zinc concentration, low concentration zinc” value ([1]; 20 μM, FluoZin-3 (FIG. 13)) of the same compound?
**A.** The value was “did not show remarkable effects”.

**Q.** What about the “free zinc concentration, high concentration zinc” value ([1]; 20 μM, Newport green DCF (FIG. 12)) of the same compound?
**A.** Its value is “exhibited effects of decreasing the free zinc concentration”.

**Q.** What about the free zinc ions ([1]; 20 μM, Newport green DCF or FluoZin-3) of the same compound?
**A.** Its free zinc ions is “reduce free zinc ions”.

**Q.** And the “zinc in the neuronal cells during H2O2 toxicity” value (neuronal cells [2])?
**A.** The value was “zinc reduction in the neuronal cells”.

**Q.** And the “concentration exhibiting toxicity protective effects against ionomycin” value (neuronal cells [3])?
**A.** Its value is “more than 40 μM”.

**Q.** And the remaining activity at 10 µM [4]?
**A.** The remaining activity at 10 µM was 3.97%.

**Q.** And the “neurotoxicity by TPEN” value (mouse cortical cultures [5])?
**A.** Its value is “decrease neurotoxicity by TPEN”.

**Q.** What about the “caspase-3 activity induced by TPEN” value (mouse cortical cultures [6]) of the same compound?
**A.** The value was “significantly reduce caspase-3 activity induced by TPEN”.

**Q.** And the “brain damage due to permanent MCAO” value ([7]; 75 ng/3 μl intra-cerebroventricular 15 min after MCAO, TTC staining at 24 hours)?
**A.** Its value is “significantly inhibit brain damage”.

**Q.** And the “Weight reduction” value ([7]; MCAO rat, 75 ng/3 μl intra-cerebroventricular)?
**A.** Its value is 43.8 ± 6.1 g.

**Q.** And the “increase in intracellular free zinc, fluorescence magnitude” value ([8]; 4C01, 4C07 20 μM, #28 20, 50 μM, fluorometer)?
**A.** The value was “inhibit an increase in intracellular free zinc to the similar level”.

**Q.** And the “increase in free zinc in the neurons” value ([8]; high concentration zinc, 20, 50 μM, confocal microscope)?
**A.** The value was “significantly reduced”.

**Q.** And the free zinc concentration [9]?
**A.** Its free zinc concentration is “reduced in a concentration-dependent manner”.

**Q.** What about the “affinity to calcium ions versus zinc ions” value [10] of the same compound?
**A.** Its value is “lower affinity to calcium ions than zinc ions”.

**Q.** What about the “chelating effects for calcium” value ([10]; Fura-2 dye, test tube) of the same compound?
**A.** The value was “shows the chelating effects for calcium in a high concentration”.

**Q.** What about the “toxicity by blood indicators compared to control group” value [11] of the same compound?
**A.** Its value is “noticeable toxicity was not observed”.

**Q.** And the dead rats ([11]; 24 hours)?
**A.** The dead rats was “dead rats were not found”.

**Q.** What about the ALT ([11]; n = 4, blood) of the same compound?
**A.** Its ALT is 54.5 ± 8.2 U/L.

**Q.** What about the AST ([11]; n = 4, blood) of the same compound?
**A.** Its AST is 142.3 ± 50.7 U/L.

**Q.** What about the BUN ([11]; n = 4, blood) of the same compound?
**A.** The BUN was 17.6 ± 1.8 mg/dL.

**Q.** And the CREA ([11]; n = 4, blood)?
**A.** The CREA was 0.5 ± 0.0 mg/dL.

**Q.** And the GLU ([11]; n = 4, blood)?
**A.** The GLU was 174.6 ± 18.0 mg/dL.

**Q.** What about the RBC ([11]; n = 4, blood) of the same compound?
**A.** Its RBC is 7.4 ± 0.5 ×10^3.

**Q.** What about the WBCB ([11]; n = 4, blood) of the same compound?
**A.** Its WBCB is 11.6 ± 1.9 ×10^3 cell/uL.

Reference: patent US20190167647A1, “PHARMACEUTICAL COMPOSITION FOR STROKE TREATMENT BASED ON AMPK INHIBITION” (INDUSTRY ACADEMY COOPERATION FOUNDATION OF SEJONG UNIVERSITY, priority 2016, published 2019)
